Results from patent publication US20230278972A1, “SUBSTITUTED HALOALKYL SULFONANILIDE HERBICIDES” (FMC Corporation, priority 2020, published 2023).

Assays:
Type in all cases: in vivo
[1] = test system: blackgrass (Alopecurus myosuroides); assay: Test A postemergence, blackgrass; conditions: Postemergence, 0 to 100 scale (0 no effect, 100 complete control); for Plant response rating, Blackgrass: 125 g ai/ha; for Blackgrass plant response rating: 500 g ai/ha, visual injury vs untreated controls after approx. 10 days
Summary of the method: (§1)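 Preemergence: seeded pots of loam plus sand received a directed soil spray. Postemergence: seedlings at one to two leaves, 2 to 10 cm high, were oversprayed. Each compound was formulated in a non-phytotoxic solvent mix that included a surfactant.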

[2] = test system: ragweed (common ragweed, Ambrosia artemisiifolia); assay: Test A postemergence, ragweed; conditions: Postemergence, 0 to 100 scale (0 no effect, 100 complete control); for Plant response rating, Ragweed: 125 g ai/ha; for Ragweed plant response rating: 500 g ai/ha, visual injury vs untreated controls after approx. 10 days
Summary of the method: as §1

kochia (Bassia scoparia) [3] = assay: Test A postemergence, kochia; conditions: Postemergence, 0 to 100 scale (0 no effect, 100 complete control); for Plant response rating, Kochia: 125 g ai/ha; for Kochia plant response rating: 500 g ai/ha, visual injury vs untreated controls after approx. 10 days
Summary of the method: as §1

[4] = test system: Foxtail, Giant (giant foxtail, Setaria faberi); assay: Test A preemergence, Foxtail, Giant; conditions: Preemergence; for Plant response rating, Foxtail, Giant: 0 to 100 scale (0 no effect, 100 complete control); for Foxtail, Giant plant response rating: visual injury on 0 to 100 scale (0 no effect, 100 complete control), approximately 10 days
Summary of the method: as §1

kochia (Bassia scoparia) [5] = assay: Test A preemergence, kochia; conditions: Preemergence; for Plant response rating, Kochia: 0 to 100 scale (0 no effect, 100 complete control); for Kochia plant response rating: visual injury on 0 to 100 scale (0 no effect, 100 complete control), approximately 10 days
Summary of the method: as §1

[6] = test system: pigweed (Amaranthus retroflexus); assay: Test A preemergence, pigweed; conditions: for Plant response rating, Pigweed: 0 to 100 scale (0 no effect, 100 complete control); for Pigweed plant response rating: visual injury on 0 to 100 scale (0 no effect, 100 complete control), approximately 10 days
Summary of the method: (§2)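 Directed soil spray at planting gave the preemergence treatment, while foliar application to one- to two-leaf seedlings (2–10 cm) gave the postemergence one; pots held a loam and sand mixture and chemicals were carried in a non-phytotoxic solvent with surfactant.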

[7] = test system: galium (catchweed bedstraw, Galium aparine); assay: Test A postemergence, galium; conditions: Postemergence, 0 to 100 scale (0 no effect, 100 complete control); for Plant response rating, Galium: 125 g ai/ha; for Galium plant response rating: 500 g ai/ha, visual injury vs untreated controls after approx. 10 days
Summary of the method: as §2

[8] = test system: Ryegrass, Italian (Italian ryegrass, Lolium multiflorum); assay: Test A preemergence, Ryegrass, Italian; conditions: Preemergence; for Plant response rating, Ryegrass, Italian: 0 to 100 scale (0 no effect, 100 complete control); for Ryegrass, Italian plant response rating: visual injury on 0 to 100 scale (0 no effect, 100 complete control), approximately 10 days
Summary of the method: as §1

[9] = test system: barnyardgrass (Echinochloa crus-galli); assay: Test A preemergence, barnyardgrass; conditions: Preemergence; for Plant response rating, Barnyardgrass: 0 to 100 scale (0 no effect, 100 complete control)
Summary of the method: as §1

[10] = test system: barnyardgrass (Echinochloa crus-galli); assay: Test A postemergence, barnyardgrass; conditions: Postemergence, 0 to 100 scale (0 no effect, 100 complete control); for Plant response rating, Barnyardgrass: 125 g ai/ha; for Barnyardgrass plant response rating: 500 g ai/ha, visual injury vs untreated controls after approx. 10 days
Summary of the method: as §2

[11] = test system: wheat (Triticum aestivum); assay: Test A postemergence, wheat; conditions: Postemergence, 0 to 100 scale (0 no effect, 100 complete control); for Plant response rating, Wheat: 125 g ai/ha; for Wheat plant response rating: 500 g ai/ha, visual injury vs untreated controls after approx. 10 days
Summary of the method: as §2

[12] = test system: Ryegrass, Italian (Italian ryegrass, Lolium multiflorum); assay: Test A postemergence, Ryegrass, Italian; conditions: Postemergence, 0 to 100 scale (0 no effect, 100 complete control); for Plant response rating, Ryegrass, Italian: 125 g ai/ha; for Ryegrass, Italian plant response rating: 500 g ai/ha, visual injury vs untreated controls after approx. 10 days
Summary of the method: as §1

corn (Zea mays) = assay: Test A postemergence, corn; conditions: Postemergence, 0 to 100 scale (0 no effect, 100 complete control); for Plant response rating, Corn: 125 g ai/ha; for Corn plant response rating: 500 g ai/ha, visual injury vs untreated controls after approx. 10 days
Summary of the method: as §1

[13] = test system: pigweed (Amaranthus retroflexus); assay: Test A postemergence, pigweed; conditions: Postemergence, 0 to 100 scale (0 no effect, 100 complete control); for Plant response rating, Pigweed: 125 g ai/ha; for Pigweed plant response rating: 500 g ai/ha, visual injury vs untreated controls after approx. 10 days
Summary of the method: as §1

[14] = test system: Foxtail, Giant (giant foxtail, Setaria faberi); assay: Test A postemergence, Foxtail, Giant; conditions: Postemergence, 0 to 100 scale (0 no effect, 100 complete control); for Plant response rating, Foxtail, Giant: 125 g ai/ha; for Foxtail, Giant plant response rating: 500 g ai/ha, visual injury vs untreated controls after approx. 10 days
Summary of the method: as §1

[15] = test system: ragweed (common ragweed, Ambrosia artemisiifolia); assay: Test A preemergence, ragweed; conditions: Preemergence; for Plant response rating, Ragweed: 0 to 100 scale (0 no effect, 100 complete control); for Ragweed plant response rating: visual injury on 0 to 100 scale (0 no effect, 100 complete control), approximately 10 days
Summary of the method: as §1

[16] = 125 g ai/ha, visual injury, approx. 10 days

Compound | Plant response rating, Blackgrass [1] | Blackgrass plant response rating [1] | Plant response rating, Ragweed [2] | Ragweed plant response rating [2] | Plant response rating, Kochia (kochia (Bassia scoparia) [3]) | Kochia plant response rating (kochia (Bassia scoparia) [3]) | Plant response rating, Galium [7] | Galium plant response rating [7] | Plant response rating, Barnyardgrass ([9]; 500 g ai/ha) | Plant response rating, Barnyardgrass [10] | Barnyardgrass plant response rating [10] | Plant response rating, Wheat [11] | Wheat plant response rating [11] | Plant response rating, Ryegrass, Italian [12] | Ryegrass, Italian plant response rating [12] | Plant response rating, Corn (corn (Zea mays)) | Corn plant response rating (corn (Zea mays)) | Plant response rating, Pigweed [13] | Pigweed plant response rating [13] | Plant response rating, Foxtail, Giant [14] | also measured
Cc1cc(C)c(C(=O)N2CCC(S(C)(=O)=O)CC2)cc1NS(=O)(=O)C(F)(F)F [Compound 233] | 0 | 40 | 0 | 0 | 0 | 30 | 80 | 90 | 30 | 0 | 0 | 0 | 40 | 0 | 0 | 0 | 0 | 30 | 60 | 0 | Plant response rating, Foxtail, Giant [4, 16]: 40; Foxtail, Giant plant response rating ([4]; 500 g ai/ha): 100; Plant response rating, Kochia (kochia (Bassia scoparia) [5]; [16]): 0; Kochia plant response rating (kochia (Bassia scoparia) [5]; 500 g ai/ha): 80; Plant response rating, Pigweed [6, 16]: 60; Pigweed plant response rating ([6]; 500 g ai/ha): 90; Plant response rating, Ryegrass, Italian [8, 16]: 20; Ryegrass, Italian plant response rating ([8]; 500 g ai/ha): 70; Plant response rating, Barnyardgrass [9, 16]: 0; Foxtail, Giant plant response rating [14]: 0; Plant response rating, Ragweed [15, 16]: 0; Ragweed plant response rating ([15]; 500 g ai/ha): 30
Cc1cc(C)c(N(S(=O)(=O)C(F)(F)F)S(=O)(=O)C(F)(F)F)cc1C(=O)N(C)CC1CC1 [Compound 169] | 0 | 20 | 60 | 90 | 20 | 50 | 80 | 90 | 100 | 40 | 90 | 0 | 0 | 10 | 30 | 50 | 90 | 40 | 50 | 10 | Foxtail, Giant plant response rating ([4]; 125 g ai/ha): 20; Plant response rating, Foxtail, Giant ([4]; 500 g ai/ha): 90; Kochia plant response rating (kochia (Bassia scoparia) [5]; 125 g ai/ha): 0; Plant response rating, Kochia (kochia (Bassia scoparia) [5]; 500 g ai/ha): 30; Pigweed plant response rating ([6]; 125 g ai/ha): 60; Plant response rating, Pigweed ([6]; 500 g ai/ha): 80; Ryegrass, Italian plant response rating ([8]; 125 g ai/ha): 50; Plant response rating, Ryegrass, Italian ([8]; 500 g ai/ha): 100; Barnyardgrass plant response rating ([9]; 125 g ai/ha, visual injury on 0 to 100 scale (0 no effect, 100 complete control), approximately 10 days): 30; Foxtail, Giant plant response rating [14]: 40; Ragweed plant response rating ([15]; 125 g ai/ha): 40; Plant response rating, Ragweed ([15]; 500 g ai/ha): 80
Cc1cc(F)c(C(=O)N2CC(C)OC(C)C2)cc1NS(=O)(=O)C(F)(F)F (stereo not drawn) [Compound 238] | 0 | 30 | 60 | 80 | 20 | 30 | 80 | 80 | 0 | 0 | 60 | 60 | 70 | 30 | 70 | 0 | 0 | 30 | 80 | 30 | Plant response rating, Foxtail, Giant [4, 16]: 30; Foxtail, Giant plant response rating ([4]; 500 g ai/ha): 60; Plant response rating, Kochia (kochia (Bassia scoparia) [5]; [16]): 80; Kochia plant response rating (kochia (Bassia scoparia) [5]; 500 g ai/ha): 60; Plant response rating, Pigweed [6, 16]: 20; Pigweed plant response rating ([6]; 500 g ai/ha): 80; Plant response rating, Ryegrass, Italian [8, 16]: 60; Ryegrass, Italian plant response rating ([8]; 500 g ai/ha): 90; Plant response rating, Barnyardgrass [9, 16]: 0; Foxtail, Giant plant response rating [14]: 70; Plant response rating, Ragweed [15, 16]: 20; Ragweed plant response rating ([15]; 500 g ai/ha): 90
